What is called melting point is the temperature of the solid-liquid transition.

For data set [1], the system named is different microbes (Bacillus cereus, Staphylococcus aureus, Pseudomonas aeruginosa, Escherichia coli, Aspergillus flavus, Chrysosporium keratinophilum). The experiment in a line: agar plate disc-diffusion antimicrobial test. Type of data set: cell-based. Particulars: disc wetted with 10 μL of 10 mg/mL in DMSO; 37° C., 48 h (72 h for fungi); inhibition zones measured in mm but not given. Here is the method: The agar plate disc-diffusion method was applied. Sterilized filter papers (6 mm in diameter) were wetted with 10 μL of a solution of ethyl {[4-benzoyl-5-(3-fluorophenyl)-4H-1,2,4-triazol-3-yl]thio}acetate (III) to be tested, containing 10 mg/mL in DMSO, and the discs were allowed to air dry. The discs were then placed onto the surface of agar plates (nutrient agar for bacteria and Sabouraud's dextrose agar for fungi) seeded with the test organism. Each plate contained 15 mL of the agar medium, previously seeded with 0.2 mL of the broth culture of each organism pregrown for 18 h. The plates were incubated at 37° C. for 48 h, and 72 h for fungi. The inhibition zones was measured in mm. Discs impregnated with DMSO were used as a control, and its inhibition zone was subtracted from the tested compound actual inhibition zone. […] The antibacterial activity was screened against gram positive bacteria namely Bacillus cereus and Staphylococcus aureus and gram-negative bacterial strains namely Pseudomonas aeruginosa and Escherichia coli, while the antifungal activity was screened against Aspergillus flavus and Chrysosporium keratinophilum.
A general note: In agar diffusion tests the substance spreads into inoculated agar from a disc or well.

Compound `CCOC(=O)CSc1nnc(-c2cccc(F)c2)n1C(=O)c1ccccc1` [III, ethyl {[4-benzoyl-5-(3-fluorophenyl)-4H-1,2,4-triazol-3-yl]thio}acetate] returned a melting point of 154 to 155 °C. Moreover, in data set [1], the antimicrobial activities result is reported as “excellent antimicrobial activities”.

The record behind these values is patent US11970465B1, “Ethyl {[4-benzoyl-5-(3-fluorophenyl)-4H-1,2,4-triazol-3-yl]thio}acetate as an antimicrobial compound” (priority 2023, dated 2024).
